Data: patent US9593110B2, “Neprilysin inhibitors” (Theravence Biopharma R&D IP, LLC, priority 2014, dated 2017)

Experiments:
[1] = Rat PO cassette assay (oral bioavailability); format: in vivo, Sprague-Dawley rats; details: male, Sprague-Dawley, plasma, single oral gavage vs intravenous dose, 0.5 mg/kg
Source text: Oral bioavailability, or % F, is a measure of the percentage of a drug in an oral dose that actually reaches the systemic circulation. Compound losses can occur due to incomplete formulation dissolution, incomplete absorption due to compound insolubility or instability along the GI, or metabolism in the gut or across the gut wall. The fraction of the dose which reaches the hepatic portal vein must also then pass through the liver before reaching the systemic circulation. Compound metabolism, or “first-pass extraction,” can occur during this initial passage through the liver, and this is an additional potential source of compound loss. Oral bioavailability is calculated as the dose-normalized ratio of drug exposure after an oral dose to that after an intravenous dose, wherein the entire dose is delivered directly to the systemic circulation.
Each cassette study begins with 10 mM DMSO stock solutions of up to 5 different compounds. Typically, compounds are selected such no two compounds dosed in the same cassette have a molecular weight within 5 Da of each other. This simplifies subsequent bioanalysis. Appropriate volumes of each DMSO stock are added into a volume of vehicle (5% sodium bicarbonate, 5% dextrose in H2O) such that the final concentration of each compound is 0.25 mg/mL. Intravenous dosing solutions are sterile-filtered (0.2 μm) prior to dosing.
Pre-cannulated male Sprague-Dawley rats (3 per cassette per route) between 8 and 10 weeks of age were obtained from Harlan Laboratories (Indianapolis, Ind.). Rats received either a single oral gavage or a single intravenous (via lateral tail vein) dose (2 mL/kg) of the dosing solution. The final dose was 0.5 mg/kg. Serial blood samples were harvested via jugular vein cannula at 3 minutes, 15 minutes, 30 minutes, 1 hours, 2 hours, 4 hours, 6 hours, and 24 hours post-dose. Sampling was performed either manually or using automated blood samplers. Samples were collected into microtainer tubes containing EDTA as the anticoagulant and are processed to plasma by refrigerated centrifugation.
Plasma samples were extracted with 3 volumes of MeCN containing a suitable internal standard. Extracts were reconstituted into 3 volumes of water containing 1% formic acid, and analyzed via HPLC-coupled MS/MS. Plasma concentration-time data were analyzed using the Phoenix software (Pharsight Corp., St. Louis, Mo.) to calculate pharmacokinetic parameters.
Compounds of the invention of particular interest were those having a % F>10%, when tested in this assay.

human NEP = human NEP (Homo sapiens (Human), UniProt P08473); test: In vitro enzyme inhibition assay at human NEP; details: recombinant human NEP, fluorogenic peptide substrate, 37° C.; for Ki: pKi
Sequence of human NEP (P08473 52-750): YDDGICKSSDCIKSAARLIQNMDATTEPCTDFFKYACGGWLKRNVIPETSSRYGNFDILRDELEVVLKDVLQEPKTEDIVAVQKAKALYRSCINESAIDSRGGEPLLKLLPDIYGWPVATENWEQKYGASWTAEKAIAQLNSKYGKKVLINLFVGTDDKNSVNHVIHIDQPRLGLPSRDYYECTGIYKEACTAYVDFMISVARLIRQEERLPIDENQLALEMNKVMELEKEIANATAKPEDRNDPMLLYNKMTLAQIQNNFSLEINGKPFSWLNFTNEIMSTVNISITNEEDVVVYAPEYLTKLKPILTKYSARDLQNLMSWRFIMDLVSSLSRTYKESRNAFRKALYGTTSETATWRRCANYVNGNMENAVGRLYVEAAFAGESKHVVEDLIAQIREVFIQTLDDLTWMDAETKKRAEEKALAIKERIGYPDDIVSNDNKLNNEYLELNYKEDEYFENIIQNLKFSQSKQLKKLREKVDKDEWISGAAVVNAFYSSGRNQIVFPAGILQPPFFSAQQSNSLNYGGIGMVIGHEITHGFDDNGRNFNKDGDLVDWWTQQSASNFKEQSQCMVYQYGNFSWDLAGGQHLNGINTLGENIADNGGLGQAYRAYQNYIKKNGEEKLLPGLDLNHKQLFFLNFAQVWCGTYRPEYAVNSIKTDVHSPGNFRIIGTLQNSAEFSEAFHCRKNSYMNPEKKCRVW

| bioavailability [1] [%] | pKi (human NEP) | SMILES | Ki (human NEP) [nM] |
| --- | --- | --- | --- |
| > 10 | ≧9.0 | CCOC[C@H](C[C@@H](Cc1ccc(-c2cc(Cl)ccc2F)cc1)NC(=O)c1cc(O)no1)C(=O)O [Example 7-4, (2S,4S)-5-(5′-Chloro-2′-fluoro-biphenyl-4-yl)-2-ethoxymethyl-4-[(3-hydroxy-isoxazole-5-carbonyl)amino]pentanoic acid] |  |
| > 10 |  | CCOC(=O)[C@H](N)C[C@@H](Cc1ccc(-c2cc(Cl)ccc2F)cc1)NC(=O)c1cnn[nH]1 [Example 14a, (2R,4R)-2-Amino-5-(5′-chloro-2′-fluorobiphenyl-4-yl)-4-[(3H-[1,2,3]triazole-4-carbonyl)amino]pentanoic Acid Ethyl Ester] | 10 to 31.6 |
| > 10 | ≧9.0 | Cc1ccccc1-c1n[nH]c(C(=O)N[C@H](Cc2ccc(-c3cc(Cl)ccc3F)cc2)C[C@@H](N)C(=O)O)c1F [Example 16-23, (2R,4R)-2-Amino-5-(5′-chloro-2′-fluorobiphenyl-4-yl)-4-[(4-fluoro-5-o-tolyl-2H-pyrazole-3-carbonyl)amino]pentanoic acid] |  |
| > 10 | ≧9.0 | N[C@H](C[C@@H](Cc1ccc(-c2cc(Cl)ccc2F)cc1)NC(=O)c1cc(-c2ccccc2Cl)no1)C(=O)O [Example 16-24, (2R,4R)-2-Amino-5-(5′-chloro-2′-fluorobiphenyl-4-yl)-4-{[3-(2-chlorophenyl)-isoxazole-5-carbonyl]amino}pentanoic acid] |  |
| > 10 | ≧9.0 | CCc1cc(C(=O)N[C@H](Cc2ccc(-c3cc(Cl)ccc3F)cc2)C[C@@H](CN)C(=O)O)on1 [Example 21-1, (2S,4S)-2-Aminomethyl-5-(5′-chloro-2′-fluorobiphenyl-4-yl)-4-[(3-ethylisoxazole-5-carbonyl)amino]pentanoic acid] |  |
| > 10 |  | CCc1cc(C(=O)N[C@H](Cc2ccc(-c3cc(Cl)ccc3F)cc2)C[C@@H](NC(=O)OC)C(=O)O)on1 [Example 29, (2R,4R)-5-(5′-Chloro-2′-fluorobiphenyl-4-yl)-4-[(3-ethylisoxazole-5-carbonyl)amino]-2-methoxycarbonylaminopentanoic Acid] | ≤ 1 |
| > 10 | ≧9.0 | COC(=O)N[C@H](C[C@@H](Cc1ccc(-c2cc(Cl)ccc2F)cc1)NC(=O)c1ncc(C)o1)C(=O)O [Example 30-4, (2R,4R)-5-(5′-Chloro-2′-fluorobiphenyl-4-yl)-2-methoxycarbonylamino-4-[(5-methyloxazole-2-carbonyl)amino]pentanoic acid] |  |
| > 10 | ≧9.0 | CCc1nc(C(=O)N[C@H](Cc2ccc(-c3cc(Cl)ccc3F)cc2)C[C@@H](NC(=O)OC)C(=O)O)co1 [Example 30-6, (2R,4R)-5-(5′-Chloro-2′-fluorobiphenyl-4-yl)-4-[(2-ethyl-oxazole-4-carbonyl)amino]-2-methoxycarbonylaminopentanoic acid] |  |
| > 10 | ≧9.0 | COC(=O)N[C@H](C[C@@H](Cc1ccc(-c2cc(Cl)ccc2F)cc1)NC(=O)c1ccc(Cl)cn1)C(=O)O [Example 30-12, (2R,4R)-5-(5′-Chloro-2′-fluorobiphenyl-4-yl)-4-[(5-chloro-pyridine-2-carbonyl)-amino]-2-methoxycarbonylaminopentanoic acid] |  |

| SMILES | bioavailability [1] [%] | pKi (human NEP) | Ki (human NEP) [nM] |
| --- | --- | --- | --- |
| CCCCCCOC(=O)[C@H](N)C[C@@H](Cc1ccc(-c2cc(Cl)ccc2F)cc1)NC(=O)c1cnn[nH]1 [Example 14b, (2R,4R)-2-Amino-5-(5′-chloro-2′-fluorobiphenyl-4-yl)-4-[(3H-[1,2,3]triazole-4-carbonyl)amino]pentanoic Acid Hexyl Ester] | > 10 |  | 31.6 to 100 |
| CCOC(=O)[C@H](N)C[C@@H](Cc1ccc(-c2cc(Cl)ccc2F)cc1)NC(=O)c1cc(C(C)=O)n[nH]1 [Example 16-10, (2R,4R)-4-[(5-Acetyl-2H-pyrazole-3-carbonyl)amino]-2-amino-5-(5′-chloro-2′-fluoro-biphenyl-4-yl)pentanoic acid ethyl ester] | > 10 |  | 10 to 31.6 |
